Consider one molecule from paper PMC11945486, “TAS1R2/TAS1R3 Single-Nucleotide Polymorphisms Affect Sweet Taste Receptor Activation by Sweeteners: The SWEET Project” (Nutrients, 2025).

SMILES strings stand for the structures.

The assay deals with T1, human TAS1R2-I234V (subunit alone) (Homo sapiens, UniProt Q8TE23, I234V).
T1 construct: expressed in transfected cells; host or cells: HEK293T-Gα16gust44
T1 sequence (Q8TE23 20-839 I234V): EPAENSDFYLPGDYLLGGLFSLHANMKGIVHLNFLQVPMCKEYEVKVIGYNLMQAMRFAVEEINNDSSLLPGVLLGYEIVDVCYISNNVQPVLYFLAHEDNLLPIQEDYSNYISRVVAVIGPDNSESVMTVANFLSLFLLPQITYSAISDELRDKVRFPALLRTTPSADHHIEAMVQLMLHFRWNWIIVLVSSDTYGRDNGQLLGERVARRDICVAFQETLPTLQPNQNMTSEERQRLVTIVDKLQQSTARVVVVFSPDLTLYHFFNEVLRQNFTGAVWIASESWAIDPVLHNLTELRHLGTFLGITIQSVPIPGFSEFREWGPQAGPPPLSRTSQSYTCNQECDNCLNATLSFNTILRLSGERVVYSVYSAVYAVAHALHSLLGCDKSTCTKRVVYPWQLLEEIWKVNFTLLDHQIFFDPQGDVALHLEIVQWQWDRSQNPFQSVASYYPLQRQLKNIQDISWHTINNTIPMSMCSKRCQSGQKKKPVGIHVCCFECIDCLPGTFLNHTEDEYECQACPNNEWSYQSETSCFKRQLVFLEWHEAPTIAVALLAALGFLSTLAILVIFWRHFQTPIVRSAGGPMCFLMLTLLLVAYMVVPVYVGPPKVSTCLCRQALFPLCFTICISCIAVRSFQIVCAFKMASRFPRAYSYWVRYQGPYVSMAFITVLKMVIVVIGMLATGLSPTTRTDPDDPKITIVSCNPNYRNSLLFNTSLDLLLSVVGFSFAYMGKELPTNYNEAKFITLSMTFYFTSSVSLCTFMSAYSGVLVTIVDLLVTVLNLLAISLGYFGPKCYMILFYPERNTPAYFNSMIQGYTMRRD
The assay is described as follows: Calcium mobilisation assay, TAS1R2-I234V subunit alone. It is filed as cell-based. The text has this:
The coding sequences for TAS1R2 and TAS1R3 were commercially synthesised, and the human codon was optimised for expression in human cells. The coding sequences of human TAS1R2 and TAS1R3 were subcloned and inserted into the mammalian expression vectors pcDNA6/myc-HisA and pcDNA4/myc-HisA (Invitrogen; Thermo Fisher Scientific; Illkirch, France) between the EcoRI and NotI restriction sites, generating the plasmids pcDNA6-TAS1R2 and pcDNA4-TAS1R3, respectively. To increase protein expression in mammalian cells, an upstream start codon was used, which was a sequence called MAX, corresponding to the QBI SP163 element also described in pcDNA4-HisMax (Invitrogen; Thermo Fisher Scientific; Illkirch, France). To measure the expression level of the receptor by immunohistochemistry, we used the FLAG sequence ([…]) in the C-terminal position, which encodes the FLAG tag epitope. […]
The HEK293T cells were kindly provided by Jay P. Slack (Givaudan Flavors Corporation; Cincinnati, OH, USA). […] The fluorescence intensity was measured for 90 s (excitation 488 nm, emission 510 nm) in an automated fluorometric FlexStation®3 Multi-Mode microplate reader (Molecular Devices; San Jose, CA, USA). […] The Ca^2+ changes were expressed as fractional changes in fluorescent light intensity: ΔF/F = (F − F0)/F0, where F was the fluorescent light intensity at each point, and F0 was the value of emitted fluorescent light prior to stimulus application. To calculate dose–response relationships, the changes in fluorescence upon stimulus application were averaged, mock-subtracted and baseline-corrected. […] The half-maximal effective concentrations (EC50 values) and maximal signal amplitudes were calculated using SigmaPlot software (version 15.0) (Systat Software; San Jose, CA, USA).
For in vitro calcium mobilisation assay performed on hTAS1R2-SNPs, hTAS1R3-SNPs and mTAS1R3-I60T, 6 to 7 concentrations were tested for each sweet compound, plus buffer alone. All concentration–receptor combinations were measured in duplicate, and each experiment was repeated at least 4 times (8 wells/concentration). […]

`C=C(C)[C@@H]1CC=C(/C=N/O)CC1` [Perillartine, perillartine]: the EC50 is 311 ± 24.6 µM and the “R1 = Variant EC50/WT EC50” value is on record as 3.5. The “Max ΔF/F0” value (maximal signal amplitude) amounted to 0.29 ± 0.01.
